How the values were obtained:
microglial cells = assay: Viability of LPS-activated microglial cells (MTT); format: cell-based, rat; settings: MTT 20 hr later
Description: Microglial cells were activated with LPS in the presence or absence of different concentrations of 3,5,4′-trihydroxy-6,7,3′-trimethoxyflavone. Cell viability was determined (using MTT) 20 hr later.

MEK1 = assay: SNP-induced MEK1 phosphorylation in N2a cells (ELISA); format: cell-based; settings: concomitant treatment 40 min, total protein not affected
Description: N2a cells were treated concomitantly with SNP and TTF for 40 min. Cells were extracted and the levels of phosphorylated or total MEK1 were determined by specific ELISA kits. The results are shown in FIG. 20 are the mean±SEM of two different experiments […].

COX-2 = COX-2 transcripts in LPS-stimulated microglial cells (real-time PCR); format: cell-based, rat; settings: 20 μg/mL; LPS 4.5 ng/mL, 5 h
Description: RNA was extracted by the RNeasy Plus Mini Kit (Qiagen, Hilden, Germany) according to the manufacturer's instructions. Genomic DNA was removed from the RNA samples by using 50 units of RNase-free DNaseI at 37° C. for 1 h. RNA ([…]) was converted to cDNA using the Thermo Scientific Verso cDNA kit (Thermo Fisher Scientific Inc) following the manufacturer's protocol. The cDNA was used for quantitative real-time PCR amplification with TaqMan chemistry (Applied Biosystems) using Rat MMP9, TNFα, IL1β, iNOS, COX2 pre-designed TaqMan Gene Expression Assay from Applied Biosystems (Rn00579162_m1, Rn00562055_m1, Rn00580432_m1, Rn00561646_m1, Rn01483828_m1, respectively). […] All results from three technical replicates were normalized relative to α-Tubulin (Rn01532518.g1) and GAPDH (Rn01775763.g1), respectively, and expressed as relative expression ratios calculated (relative quantity, RQ) using the comparative method and based on the data that were created by the ABI PRISM 7700 Sequence Detection System (using version 1.6 software).
Procedure 23. Measurement of IL-1Beta, TNFalpha, iNOS, COX-2 and MMP-9 Transcripts in LPS-Activated Microglial Cells by Quantitative Real-Time PCR Analysis. • 1. […]
Microglial cells were treated with 20 μg/mL of achillolide A, followed by stimulation with LPS (4.5 ng/mL). […] The results are expressed as percentages relative to LPS-stimulated cells. […]

Row | SMILES | cytotoxicity to microglial cells (microglial cells) | effect on SNP-induced phosphorylation of MEK1 (MEK1) | effect on LPS-induced COX-2 transcript levels (COX-2)
1 | COc1cc(-c2oc3cc(OC)c(OC)c(O)c3c(=O)c2O)ccc1O [TTF, 3,5,4′-trihydroxy-6,7,3′-trimethoxyflavone] | not cytotoxic | significantly inhibited | 
2 | C=C1CCC2=C(CO)C(=O)O[C@H]2/C=C(\C)[C@H](OC(C)=O)CC1=O [achillolide A] |  |  | significantly inhibited

— patent US11752125B2, “Anti-neuroinflammatory and protective compounds in Achillea fragrantissima” (THE STATE OF ISRAEL MINISTRY OF AGRICULTURE & RURAL …, priority 2013, dated 2023)
